Measured values reported in patent publication US10106539B2, “Spiro-indolines for the treatment and prophylaxis of respiratory syncytial virus infection (RSV)” (REVIRAL LIMITED, priority 2014, dated 2018).

Legend:
[1] = Liver microsomal stability, dog; assay type: in vitro ADME; conditions: male, Beagle, pooled liver microsomes, pH 7.4, Comparative Example 2, read-out: Liver Microsomal Stability T1/2, dog (Table 5)
Description: (§1) Microsomal Incubation: Experimental Procedure
(§2) Pooled human liver microsomes (pooled male and female), pooled rat liver microsomes (male Sprague Dawley rats) and pooled dog liver microsomes (male Beagle dog) are purchased from a reputable commercial supplier and stored at −80° C. prior to use.
Microsomes (final protein concentration 0.5 mg/mL), 0.1 M phosphate buffer pH 7.4 and test compound (final substrate concentration 3 μM; final DMSO concentration 0.25%) are pre-incubated at 37° C. prior to the addition of NADPH (final concentration 1 mM) to initiate the reaction. The final incubation volume is 50 μL. A control incubation is included for each compound tested where 0.1 M phosphate buffer pH 7.4 is added instead of NADPH (minus NADPH). Two control compounds are included with each species. All incubations are performed singularly for each test compound.
(§3) Compounds are incubated for 0, 5, 15, 30 and 45 min. The control (minus NADPH) is incubated for 45 min only. The reactions are stopped by transferring 25 μL of incubate to 50 μL methanol at the appropriate time points. The termination plates are centrifuged at 2,500 rpm for 20 min at 4° C. to precipitate the protein. Following protein precipitation, the sample supernatants are combined in cassettes of up to 4 compounds, internal standard is added and samples analysed by LC-MS/MS. From a plot of ln peak area ratio (compound peak area/internal standard peak area) against time, the gradient of the line is determined. Subsequently, half-life and intrinsic clearance are calculated

RSV fusion (A2_F) = biological target: T1, RSV fusion (A2_F) (Human respiratory syncytial virus A, UniProt P03420); experiment: RSV fusion assay (luciferase reporter, transfected HEK 293T/17 cells); assay type: cell-based
T1 construct: expressed in transfected cells; host or cells: HEK 293T/17
T1 sequence (P03420 26-109): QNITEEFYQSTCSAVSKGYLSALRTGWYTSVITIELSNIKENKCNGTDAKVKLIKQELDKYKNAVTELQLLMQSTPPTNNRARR
T1 sequence (P03420 137-574): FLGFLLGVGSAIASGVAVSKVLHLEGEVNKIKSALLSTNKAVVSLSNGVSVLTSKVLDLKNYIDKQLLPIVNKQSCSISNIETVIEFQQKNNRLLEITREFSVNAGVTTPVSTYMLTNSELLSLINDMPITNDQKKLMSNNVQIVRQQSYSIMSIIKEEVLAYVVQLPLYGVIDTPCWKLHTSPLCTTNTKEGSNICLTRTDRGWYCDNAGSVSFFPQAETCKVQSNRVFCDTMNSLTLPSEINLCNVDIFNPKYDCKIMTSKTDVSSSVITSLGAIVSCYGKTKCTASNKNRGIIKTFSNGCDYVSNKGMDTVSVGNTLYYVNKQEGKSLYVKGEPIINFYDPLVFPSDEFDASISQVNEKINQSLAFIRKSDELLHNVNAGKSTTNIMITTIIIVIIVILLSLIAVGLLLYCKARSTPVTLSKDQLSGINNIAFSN
Description: HEK 293T/17 cells were cultured in T75 culture flasks in Dulbecco's medium containing 10% FBS and 1× Penicillin-Streptomycin and warmed to 37° C. prior to use. The cells were passaged by first washing briefly with 3 ml PBS followed by a 4 min incubation with […] at 37° C. 7 ml media was then added to the flask and the cells dispersed via pipetting (×3) against the bottom of the flask. Two further T75 flasks were each seeded with 2×10^6 cells in 15 ml fresh media.
Cells were seeded on the T75 plates at the same density as on the 6-well plates to the area of a T75 flask and one 1.75 cm radius well from a 6-well plate were compared. 7.79×2 ml of 3×10^5 cells ml^−1 was used to seed a single T75 flask.
HEK cells were removed from a T75 flask as described above. The cells were counted and diluted to 3×10^5 cells/ml in fresh media. Two T75 flasks were each seeded with 15.58 ml diluted cells.
The plasmid DNA (for pFR-Luc and pcDNA3.1_Gal4/NFκB) to be transfected into the HEK cells was first prepared in serum free media (DMEM+Pen/Strep) containing the transfection reagent Fugene 6 (Promega). Transfections were set up as follows (Luc=pFR_Luc, Gal4=pcDNA3.1+_Gal4/NFκB, A2_F=pcDNA3.1+_A2_F)
Serum free media was placed in a 1.5 ml eppendorf tube then the fugene 6 was added into the media. The tube was vortexed for 1 s before being incubated at RT for 5 min. The plasmid DNA was then added to the tube, vortexed for 1 s, then incubated at RT for 15 min
The transfection reagents were then added to the appropriate T75 flask by tipping the flask on end and adding the reagents directly to the media already in the flask. […]
Luminescence was measured at appropriate time points as follows:
Media was discarded into Virkon and the plates washed with 100 ul PBS per well. […] Add 100 μl working luciferin buffer to each well and luminescence was measured immediately.
Media was discarded into Virkon and 100 ul SFM+20 ul CellTitre-Blue solution was added to each well. […] Resorufin fluorescence was measured at 590 nm.

[2] = Liver microsomal stability, rat; assay type: in vitro ADME; conditions: male, Sprague Dawley
Description: as §1, §2
The final incubation volume is 50 μL. A control incubation is included for each compound tested where 0.1 M phosphate buffer pH 7.4 is added instead of NADPH (minus NADPH). Two control compounds are included with each species. All incubations are performed singularly for each test compound.
as §3, with “The” for “Compounds are incubated for 0, 5, 15, 30 and 45 min. The control (minus NADPH) is incubated for 45 min only. The”

[3] = Plasma protein binding (equilibrium dialysis), human; assay type: in vitro ADME; conditions: plasma (100%), pH 7.4, read-out: PPB fraction unbound, human
Description: Protein Binding Determination: Experimental Procedure
Solutions of test compound (5 μM, 0.5% final DMSO concentration) are prepared in buffer (pH 7.4) and 100% species-specific plasma. The experiment is performed using equilibrium dialysis with the two compartments separated by a semi-permeable membrane. The buffer solution is added to one side of the membrane and the plasma solution to the other side. After equilibration, samples are taken from both sides of the membrane. Standards are prepared in plasma and buffer and are incubated at 37° C.
Test compound incubations are performed in duplicate. A control compound is included in each experiment.
The solutions for each batch of compounds are combined into two groups (protein-free and protein-containing), then cassette analysed by LC-MS/MS using two sets of calibration standards for protein-free (7 points) and protein-containing solutions (6 points).

SMILES | half-life at 3 μM [1] | IC50 (RSV fusion (A2_F)) | half-life at 3 μM ([2]; pooled liver microsomes, pH 7.4, Comparative Example 2, read-out: Liver Microsomal Stability T1/2, rat (Table 5)) | IC90 (RSV fusion (A2_F); HEK293T/17, read-out: RSV Fusion Assay IC90) | fraction unbound at 5 μM [3] | half-life at 3 μM ([2]; pH 7.4, rat liver microsomes, 3 μM compound, read-out: Liver Microsomal Stability T1/2, rat)
CC(C)CCn1c(CN2C(=O)C3(CC3)c3ccccc32)nc2cc(CN)ccc21 [RV039, 1′-((5-(aminomethyl)-1-isopentyl-1H-benzo[d]imidazol-2-yl)methyl)spiro[cyclopropane-1,3′-indolin]-2′-one, reference compound] | > 1.67 h | 10 nM | > 1.58 h | – | – | –
NCc1ccc2c(c1)nc(CN1C(=O)C3(CC3)c3ccc(F)cc31)n2CCCC(F)(F)F [Example 1, 1′-{[5-(Aminomethyl)-1-(4,4,4-trifluorobutyl)-1H-1,3-benzodiazol-2-yl]methyl}-6′-fluoro-1′,2′-dihydrospiro[cyclopropane-1,3′-indole]-2′-one] | – | 1.1 nM | – | 9.4 nM | 0.67 | 1.33 h
